Results: patent US5256824A, “Substituted-amine compound and a process for the preparation thereof” (Fujisawa Pharmaceutical Co., Ltd., priority 1990, dated 1993)

Columns and labels:
Na channel = Na channel blocking activity (local anesthetic effect on the corneal blink reflex); assay type: in vivo, Male Japanese white rabbits; details: 1.0% solution in saline, 50 μl drops to one eye
Experimental: Test on Na channel blocking activity
Male Japanese white rabbits weighing 2.0-3.0 kg were to evaluate the local anesthetic effect of test compound on the corneal blink reflex. Corneal reflexes were elicited by pressing a flexible monofilament (rabbit whisker) against the cornea. 1.0% Test compound solution in saline was applied to one eye (50 μl drops) and the contralateral eye received as a control. Corneal blink responses were scored at 5, and 15 minutes after test compound application.
Local anesthetic activities were expressed as an inhibition percent of blink responses.

[1] = system: Urinary Bladder Contractions Induced by Water Filling; experiment: Inhibition of Urinary Bladder Contractions Induced by Water Filling in Rats; assay type: in vivo, Male Sprague-Dawly rats; details: Rattus norvegicus; intravenous, anesthetized rats (urethane), hyperactive bladder by water filling
Description: Test on Inhibition of Urinary Bladder Contractions Induced by Water Filling in Rats
Male Sprague-Dawly rats, weighing 240-450 g, were anesthetized with urethane 1.0 g/kg s.c. The bladder was exposed through a midline incision in the abdomen for the recording of pressure within the bladder as follows; a balloon attached to one end of a stainless steel tube (O.D., 1.2 mm, 5 cm in length) was inserted into the bladder through a small incision in the bladder dome. The other end of the tube was connected to a pressure-transducer. The ureters were ligated and cut, and the proximal cut end was cannulated with polyethylene tubing and the urine was led outside.
Hyperactive urinary bladder (hyperactive contractions of the detrusor muscle) was induced by water filling of the bladder. Therefore, the balloon in the bladder was filled with water of a volume which caused a resting pressure of about 10 mmHg. Systemic blood pressure and heart rate were monitored from the common carotid artery.
When the contractile responses to water filling became constant, test compounds were administered intravenously.

Structure (SMILES): CC(C)(C)NC1C=CC(c2ccccc2)(c2ccccc2)C1.Cl (single isomer, unassigned; (-)) [(-)-N-t-butyl-4,4-diphenyl-2-cyclopentenylamine hydrochloride]
- Inhibition % of blink responses (Na channel; 5 minutes after application): 100%
- Inhibition % of blink responses (Na channel; 15 minutes after application): 100%

Structure (SMILES): CC(C)(C)NC1C=CC(c2ccccc2)(c2ccccc2)C1.CS(=O)(=O)O (single isomer, unassigned; (-)) [(-)-N-t-butyl-4,4-diphenyl-2-cyclopentenylamine methanesulfonate]
- ED30 [1]: 0.18 mg/kg
